Source: ChEMBL document CHEMBL1201862, “PubChem BioAssay data set” (2004)
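A five-concentration, 48-hour dose response in 96-well plates underlies each endpoint, interpolated linearly between surrounding concentrations. The concentration for 50% growth inhibition is given as GI50.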 The source made the active and inactive calls. Cut-off read from the data, not from the text of the source: active = GI50 up to about 1.1 µM and inactive = higher.

Columns and labels:
Assay in all cases: NCI-60 cell line screen, 48 h
[1] = system: NCI-H23
[2] = system: SNB-19
[3] = system: LOX IMVI
[4] = system: SF-268
[5] = system: SK-MEL-28
[6] = system: EKVX
[7] = system: HOP-92
[8] = system: HCT-116
[9] = system: SK-OV-3
[10] = system: CCRF-CEM
[11] = system: NCI-H522
[12] = system: SK-MEL-5
[13] = system: OVCAR-5
[14] = system: NCI/ADR-RES
[15] = system: M14
[16] = system: 786-0
[17] = system: PC-3
[18] = system: DU-145

Structure (SMILES)	GI50 [1]	GI50 [2]	GI50 [3]	GI50 [4]	GI50 [5]	GI50 [6]	GI50 [7]	GI50 [8]	GI50 [9]	GI50 [10]	GI50 [11]	GI50 [12]	GI50 [13]	GI50 [14]	GI50 [15]	GI50 [16]	GI50 [17]	GI50 [18]
O=NN(CCCl)C(=O)NC1CCC(CC2CCC(NC(=O)N(CCCl)N=O)CC2)CC1 (stereo not drawn)	34.1 µM (inactive)	12.2 µM (inactive)	0.91 µM (active)	0.836 µM (active)	> 65.8 µM (inactive)	> 63.4 µM (inactive)	26.2 µM (inactive)	30.1 µM (inactive)	2.23 µM (inactive)	1.05 µM (active)	1.53 µM (inactive)	32 µM (inactive)	> 100 µM (inactive)	24.3 µM (inactive)	96.8 µM (inactive)	13.2 µM (inactive)		
O=C1CCCn2c3ccccc3c3ccnc1c32	50 µM (inactive)	47.3 µM (inactive)	36.1 µM (inactive)	30 µM (inactive)	51.6 µM (inactive)	12.2 µM (inactive)	> 62.8 µM (inactive)	30.1 µM (inactive)	44.7 µM (inactive)	27.8 µM (inactive)	34.8 µM (inactive)	34 µM (inactive)	35.2 µM (inactive)	36.6 µM (inactive)				
COc1ccc(/C(=N\NC(=O)NN)C(c2ccc(OC)cc2)C2(O)C(=O)Nc3c(Cl)cc(Cl)cc32)cc1 (stereo not drawn)	> 100 µM (inactive)	> 100 µM (inactive)	99.3 µM (inactive)	> 100 µM (inactive)	> 100 µM (inactive)	> 100 µM (inactive)	> 100 µM (inactive)	56.8 µM (inactive)		13.8 µM (inactive)		> 100 µM (inactive)	> 100 µM (inactive)		> 100 µM (inactive)	61.4 µM (inactive)		
CCOC(=O)/C(=C/c1ccccn1)C(=O)c1ccccc1	15.8 µM (inactive)	17.6 µM (inactive)	2.48 µM (inactive)	19.1 µM (inactive)	11.8 µM (inactive)	19.1 µM (inactive)	7.66 µM (inactive)	13.8 µM (inactive)	17.9 µM (inactive)	2.81 µM (inactive)	5.47 µM (inactive)	14.3 µM (inactive)	19.1 µM (inactive)		15.1 µM (inactive)	12.8 µM (inactive)		
Cc1cccc2c1C(=O)OC2(c1cccc2ccccc12)c1cccc2ccccc12	26.7 µM (inactive)	81.1 µM (inactive)	> 100 µM (inactive)	56 µM (inactive)	> 100 µM (inactive)	> 100 µM (inactive)		> 100 µM (inactive)	> 100 µM (inactive)	> 100 µM (inactive)	61 µM (inactive)	> 100 µM (inactive)	> 100 µM (inactive)		> 100 µM (inactive)	52.8 µM (inactive)		
CC1=C2C(O)C(C(C)CO)C(O)CC2(C)C(O)CC1 (stereo not drawn)		> 100 µM (inactive)	> 100 µM (inactive)	> 100 µM (inactive)	> 100 µM (inactive)	> 100 µM (inactive)	> 100 µM (inactive)	> 100 µM (inactive)	> 100 µM (inactive)	> 100 µM (inactive)	> 100 µM (inactive)	> 100 µM (inactive)	> 100 µM (inactive)		> 100 µM (inactive)	> 100 µM (inactive)		
CCN(CC)C(=S)SS(C)(=O)=O	19.9 µM (inactive)	23.9 µM (inactive)	13.6 µM (inactive)			37.2 µM (inactive)	30.6 µM (inactive)	26.4 µM (inactive)	75.7 µM (inactive)		< 0.01 µM (active)	25.5 µM (inactive)	19.4 µM (inactive)		18.2 µM (inactive)	19.2 µM (inactive)		
CCOC(=O)C12CC1(C(=O)OCC)C1CCC2C1 (stereo not drawn)	> 100 µM (inactive)	> 100 µM (inactive)	> 100 µM (inactive)	> 100 µM (inactive)	> 100 µM (inactive)		23.8 µM (inactive)	> 100 µM (inactive)	> 100 µM (inactive)	> 100 µM (inactive)		54.1 µM (inactive)	> 100 µM (inactive)		> 100 µM (inactive)	> 100 µM (inactive)		
Cc1cccc(/N=C2\NC(=O)C(CC(=O)Nc3ccc(C)cc3C)S2)c1 (stereo not drawn)	57 µM (inactive)	74.8 µM (inactive)	> 100 µM (inactive)	> 100 µM (inactive)	> 100 µM (inactive)	47.1 µM (inactive)	55.7 µM (inactive)	> 100 µM (inactive)		92 µM (inactive)	64.3 µM (inactive)	94 µM (inactive)	88.1 µM (inactive)		> 100 µM (inactive)	> 100 µM (inactive)		
O=P1(Oc2ccc(Cl)cc2Cl)Oc2ccc3ccccc3c2-c2c(ccc3ccccc23)O1	29.8 µM (inactive)	29.5 µM (inactive)	24 µM (inactive)	34.7 µM (inactive)	32.5 µM (inactive)	25.4 µM (inactive)	22.4 µM (inactive)	26.5 µM (inactive)	59.7 µM (inactive)	28 µM (inactive)	19.5 µM (inactive)	49.5 µM (inactive)	59.7 µM (inactive)	> 68.5 µM (inactive)				
C/C=C/CP(=O)(c1ccccc1)c1ccccc1	> 100 µM (inactive)	> 100 µM (inactive)	> 100 µM (inactive)		> 100 µM (inactive)	> 100 µM (inactive)		> 100 µM (inactive)	> 100 µM (inactive)	> 100 µM (inactive)	> 100 µM (inactive)	> 100 µM (inactive)	> 100 µM (inactive)		> 100 µM (inactive)	> 100 µM (inactive)		
CC(=O)OCC1OC(Nc2nc(O)n(C)c(=O)c2-c2csc(N)n2)C(OC(C)=O)C(OC(C)=O)C1OC(C)=O (stereo not drawn)	> 100 µM (inactive)	> 100 µM (inactive)	> 100 µM (inactive)	> 100 µM (inactive)	> 100 µM (inactive)		> 100 µM (inactive)	> 100 µM (inactive)	> 100 µM (inactive)	67.6 µM (inactive)	> 100 µM (inactive)	> 100 µM (inactive)	> 100 µM (inactive)		> 100 µM (inactive)	> 100 µM (inactive)		
O=c1c2ccccc2sc2nc(O)nn12	> 100 µM (inactive)	> 100 µM (inactive)	> 100 µM (inactive)	> 100 µM (inactive)	> 100 µM (inactive)	> 100 µM (inactive)	> 100 µM (inactive)	> 100 µM (inactive)	> 100 µM (inactive)	> 100 µM (inactive)		> 100 µM (inactive)	> 100 µM (inactive)		> 100 µM (inactive)	> 100 µM (inactive)		
C/C(=C1/N=C(c2cc([N+](=O)[O-])ccc2Cl)N(C2=CC=C(Cl)CC2)C1=O)c1cc2ccccc2oc1=O	14.4 µM (inactive)	44.1 µM (inactive)	20.4 µM (inactive)	36.9 µM (inactive)	26.3 µM (inactive)	> 100 µM (inactive)		37.4 µM (inactive)	> 100 µM (inactive)	40.3 µM (inactive)	14.4 µM (inactive)	24.3 µM (inactive)	41.5 µM (inactive)		23.9 µM (inactive)			
CCCCCCCCCCCCCCCCC1=CC(=O)C=C(OC)C1=O	62.2 µM (inactive)	56.4 µM (inactive)	65.3 µM (inactive)	> 100 µM (inactive)	> 100 µM (inactive)	> 100 µM (inactive)	56.8 µM (inactive)	56 µM (inactive)	> 100 µM (inactive)	29.4 µM (inactive)	> 100 µM (inactive)	> 100 µM (inactive)	> 100 µM (inactive)	95.5 µM (inactive)	> 100 µM (inactive)	47.2 µM (inactive)	80.4 µM (inactive)	> 100 µM (inactive)
COc1nc2[nH]ccc2c(=O)n1C	> 100 µM (inactive)	> 100 µM (inactive)	> 100 µM (inactive)	> 100 µM (inactive)	> 100 µM (inactive)	> 100 µM (inactive)	> 100 µM (inactive)	> 100 µM (inactive)		> 100 µM (inactive)		> 100 µM (inactive)	> 100 µM (inactive)		> 100 µM (inactive)			
COc1cccc2c1C(=O)c1c(O)c3c(c(O)c1C2=O)C[C@@](O)(C(=O)CO)CC3OC1CC(NCCCCC(OC(C)=O)OC(C)=O)C(O)C(C)O1 (stereo partly drawn)		0.00329 µM (active)	0.00179 µM (active)	0.00313 µM (active)	0.00335 µM (active)		0.0032 µM (active)		0.003 µM (active)	0.00227 µM (active)	0.0015 µM (active)		0.0047 µM (active)		0.00169 µM (active)	0.00298 µM (active)		
NC(CO)c1ccccc1 (stereo not drawn)	> 10 µM (inactive)	> 100 µM (inactive)	> 100 µM (inactive)	> 100 µM (inactive)	> 100 µM (inactive)	> 100 µM (inactive)	> 100 µM (inactive)	> 100 µM (inactive)	> 100 µM (inactive)	8.71 µM (inactive)	> 100 µM (inactive)	> 100 µM (inactive)	> 100 µM (inactive)		> 100 µM (inactive)			
CC(C)c1ccc(O)c(=O)cc1 [GAMMA-THUJAPLICIN]	7.38 µM (inactive)	7.74 µM (inactive)	4.29 µM (inactive)	4.06 µM (inactive)	12.6 µM (inactive)	10.1 µM (inactive)	5.62 µM (inactive)	2.8 µM (inactive)	42.8 µM (inactive)	1.86 µM (inactive)	3.39 µM (inactive)	9.35 µM (inactive)	14.3 µM (inactive)		7.64 µM (inactive)	5.87 µM (inactive)		
